Tested on: skin of the subject
Assay: Intradermal skin test for hypersensitivity to female reproductive hormones, case reports
Format: in vivo, human
Conditions: for Skin test result, Case 2: person one; for Skin test result, Case 6 / Skin test result, Case 7 / Skin test result, Case 4 / Skin test result, Case 1 / Skin test result, Case 5: person; for Skin test result, Case 6: menopausal syndrome; for Skin test result, Case 6 / Skin test result, Case 7: severe hot flashes; for Skin test result, Case 7: menopause; for Skin test result, Case 4: recurrent habitual abortions and severe PMS; for Skin test result, Case 1: severe premenstrual headaches, insomnia, acne; for Skin test result, Case 5: premenopausal syndrome, severe hot flashes and night sweats
Experimental: The skin test included the use of three fractions of estrogen (E1, E2 and E3) and progesterone (P), along with suitable controls. Each hormone solution was intradermally administered at a volume of 20-160 μl.
Skin test method using estriol, estrone, estradiol and/or progesterone and monitoring the immediate, late and delayed immuno-reaction to the injected hormones
1. The hormones (Table 1) diluted in solvents (Table 2) and controls (Table 3) in the above described dosages were administered intradermally into subjects.
2. Timing of intradermal administration and evaluation of the skin reaction was dependent on the tested subject.
(i) In case of fertile woman: Intradermal administration of the hormones/controls initiated at the luteal phase of menstrual cycle;
Tracking (evaluation of skin reaction) was after 20 minutes, after 48 hours and daily during the next 30 day (or a complete menstrual cycle).
(ii) Other Cases (non-fertile subjects): Intradermal administration of the hormones/controls initiated at any time;
Tracking (evaluation of skin reaction) was after 20 minutes, after 48 hours and daily during the next 7 day.
3. Measurement of wheal diameter—The wheal is formed on the skin in response to the intradermal administration of the hormone. Since the wheal responses are rarely regular or circular the wheal diameter is calculated using the following formula I.
wheal diameter=(D+d)/2 Formula I: […]
where D is the maximum diameter and d is perpendicular diameter.
4. Comparison with the controls was as follows:
(i) In case of a negative reaction to histamine (wheal diameter smaller than 5 mm), the result indicates Familial Dysautonomia disease (the subject is advised to seek other treatment);
(ii) In case of a positive reaction to saline (wheal diameter equals or larger than 5 mm), the test should be repeated;
(iv) In case of a similar or smaller reaction (wheal diameter) as compared to solvent reaction, there is no sensitivity to the tested hormone and desensitization is optional;
(v) Exception—In case the skin reaction (wheal diameter) is larger than 20 mm, the subject should not be treated and is referred to testing of cancer, systemic auto-immune diseases and other serous diseases.
Following is a description of several cases of subjects which were diagnosed and treated according to the method of some embodiments of the invention. The concentrations of hormones used in the description of the following cases 1-7 and in Table 9 below were as follow:
E1 (Estrone)—3 mM (millimole/Liter); 0.811 grams/liter;
E2 —(estradiol)—1 mM (millimole/Liter); 0.3565 grams/liter;
E3 (estriol)—3 mM (millimole/Liter); 0.86514 grams/liter;
P (progesterone)—1 mM (millimole/Liter); 0.3144 grams/liter;

[1] = habitual abortions and severe PMS

Compound	Skin test result, Case 2 [1]	Skin test result, Case 3 (person two, habitual abortions and severe PMS)	Skin test result, Case 6	Skin test result, Case 7	Skin test result, Case 4	Skin test result, Case 1 (BMI=31)	Skin test result, Case 5	Skin test result, Case 1 (BMI=31, listed as Progesterone)
17 beta Estradiol Valerate	positive delayed-type hypersensitivity reaction	delayed-type hypersensitivity reaction	Hypersensitivity (delayed type after 48 hours and 5 days)	delayed-type (after 48 hours and 6 days) hypersensitivity reaction	delayed-type hypersensitivity reaction	delayed-type hypersensitivity reaction		
C[C@]12CC[C@@H]3c4ccc(O)cc4CC[C@H]3[C@@H]1C[C@@H](O)[C@@H]2O [estriol, Estriol]			Hypersensitivity (delayed type after 48 hours and 5 days)		delayed-type hypersensitivity reaction	delayed-type hypersensitivity reaction	delayed-type hypersensitivity reaction (after 48 hours)	
CC(=O)[C@H]1CC[C@H]2[C@@H]3CCC4=CC(=O)CC[C@]4(C)[C@H]3CC[C@]12C [progesterone, Progesterone]	positive delayed-type hypersensitivity reaction			delayed-type (after 48 hours and 6 days) hypersensitivity reaction	delayed-type hypersensitivity reaction		delayed-type hypersensitivity reaction (after 48 hours)	delayed-type hypersensitivity reaction to estriol and estradiol, higher than to Progesterone
